A melting point compilation (Tetko et al.; mined from patent text by program, amines drawn as free bases though some values may be those of a salt)

| Structure (SMILES) | melting point [°C] |
| --- | --- |
| CCN(c1ccc(N2CCN(c3ccc(OC)cc3)CC2)cc1)c1nnc(C)s1 | 187 |
| CC(C)Oc1c(F)c(F)cc2c(=O)c(C(=O)O)cn(-c3cc(N)c(F)cc3F)c12 | 217 to 222 |
| CC(C)CNC(=O)/C=C/c1cccc(Cl)c1 | 112 |
| FC(F)(F)c1cc(-c2ccc(Cl)c(Cl)c2)nc2c(-c3ccncc3)cnn12 | 260 |
| CN1CC(CCCl)Oc2ncc(Cl)cc2C1=O (stereo unspecified) | 78 to 79 |
| C=CCN1CCC(Nc2nc3cncnc3n2Cc2ccc(F)cc2)CC1 | 145 |
| CCN1CC(=O)N(c2cc(Oc3ncccc3C(F)(F)F)c(Cl)cc2F)C1=O | 162 to 163 |
| O=[N+]([O-])c1ccc(F)c(Br)c1 | 59 |
| Cc1cccc(NS(=O)(=O)c2ccc(OCc3nc(-c4ccccc4)oc3C)cc2)c1C(=O)O | 167 to 170 |
| CCOc1cc2cc3ncc(C#N)c(Nc4cc(OC)c(Cl)cc4C)c3cc2cc1OCCN1CCOCC1 | 195 to 196 |
| O=[N+]([O-])CC(O)c1nn(Cc2ccccc2)c2ccccc12 (stereo unspecified) | 100 to 101 |
| CCS(=O)(=O)Nc1c(C)c(C)c2c(c1C)C(c1ccc(C(C)C)cc1)CO2 (stereo unspecified) | 132 to 133 |
| COC(=O)[C@H](Cc1c[nH]c2ccccc12)NC(=O)CCC(=O)[C@H](Cc1ccccc1)NC(=O)OC(C)(C)C | 54 to 57 |
| CSCON=C(C(=O)O)c1nccc(NC=O)n1 | 80 to 85 |
| O=C1Nc2ccc(F)c(Cl)c2C(=O)N2CCC[C@@H]12 | 217 to 219 |
| Cc1cc(OC/C=C/c2ccccc2)c(C)c(C)c1NC=O | 197 to 199 |
| Cc1ccc2c(c1)[nH]c(=O)n2CCCN1CCN(C(c2ccccc2)c2ccccc2)CC1 | 178 |
| CC(C)C(=O)OC1C(n2ccc(=O)[nH]c2=O)OC(COC(=O)c2ccc(Cl)cc2)C1(C#C[Si](C)(C)C)OC(=O)C(C)C (stereo unspecified) | 160 to 161 |
| O=C(Cc1ccccc1)C(C[N+](=O)[O-])c1ccccc1 (stereo unspecified) | 99 to 100 |
| Cn1cc(-c2ccc(C(F)(F)F)cc2)c(=O)c(-c2cccc(Cl)c2)c1 | 147 to 151 |
| COc1ccc(-n2nc(CCC(=O)NCC(=O)O)cc2-c2ccc(Cl)cc2)cc1 | 186 to 188 |
| CCCCCCc1c(C(=O)O)sc2ccsc12 | 111 to 112 |
| CC(C)(C)C(=O)OC1CC(C)(C)N(OC(=O)C(C)(C)C)C(C)(C)C1 | 43 to 46 |
| CS(=O)(=O)n1c2cc(O)c(O)cc2c2cc(O)c(O)cc21 | 278 to 280 |
| COc1ccc2nc3c(c(-c4ccc(F)cc4)c2c1)CNC3=O | 284 to 286 |
| O=C(O)Cc1ccc(OCc2c(Cl)cccc2C(=O)O)cc1 | 171 to 173 |

| Structure (SMILES) | melting point [°C] |
| --- | --- |
| O=C1c2cccc(NCCc3ccccc3)c2C(=O)c2cccc(NCCc3ccccc3)c21 | 205 to 207 |
| COc1ccc(/C=C/C(=O)N2CCc3ccccc32)cc1OC | 118 to 120 |
| O=c1[nH]c2cc(Cl)c(Cl)cc2[n+]([O-])c1-c1ccccc1O | 266 to 268 |
| Cc1cc(C)nc(NC(=O)Cc2cc(Br)sc2Br)c1 | 109 |
| COc1ccc(CC(=O)NCCc2ccc3[nH]cc(CC#N)c3c2)cc1 | 155 to 156 |
| CN(C)Cc1cc2ccc(-c3nnc(CSCCOc4ccccc4)o3)cc2[nH]1 | 128 to 130 |
| OCc1cc(O)cc(Nc2c3ccccc3nc3ccccc23)c1 | 201 to 202 |
| N#Cc1cc(O)cc2nc(-c3ccc(O)c(F)c3)oc12 | 308 to 310 |
| COc1cc2c(cc1O)c(-c1cc3cccnc3n1S(=O)(=O)c1ccc(C)cc1)cn2C | 211 to 214 |
| CCOC(=O)C(=CNc1ncnc2ccc(NC(=O)CC(C)(C)C)cc12)C(=O)OCC | 133 to 135 |
| Nc1cccc(-n2c(=O)c3c(Cc4ccccc4)n[nH]c3c3cccnc32)c1 | 277 to 279 |
| CCOc1cc(CO)cc(OCc2nc(-c3ccccc3)oc2C)c1 | 103 to 104 |
| CC1NC(=O)NN=C1c1ccccn1 (stereo unspecified) | 212 to 214 |
| CCOCc1cc(N2C(=O)C3=C(CCCC3)C2=O)c(F)cc1Cl | 89 to 91 |
| CCOc1cc(C(=O)CCCC2CCCCC2)c(O)cc1C | 48 to 49 |
| C/C(=C\C=C\C#N)c1ccc(OCc2nc(-c3ccccc3)oc2C)cc1 | 134 to 136 |
| CCC(=O)Nc1cccc(NC(=O)CC(C)(OC)OC)c1 | 115 |
| C#Cc1cncc(C2CCC(=O)N2C)c1 (stereo unspecified) | 83 to 84 |
| c1cc(-c2ccc3c(c2)OCO3)cc(Nc2ccc3c(c2)OCCO3)n1 | 116 to 118 |
| CC(O)c1nc2c(C(F)(F)F)cccc2c(O)c1C(=O)Nc1nccs1 (stereo unspecified) | 205 |
| O=C1C=C(c2ccc(Cl)c(Cl)c2)C(=O)O1 | 112 |
| COC(=O)Cn1oc2cc(OC)ccc2c1=O | 185 to 188 |
| O=[N+]([O-])c1cnc2c(F)c(Cl)c(F)cc2c1 | 174 |
| O=C(Nc1cc(C(F)(F)F)cc(C(F)(F)F)c1)c1cnc(Cl)nc1Cl | 104 to 105 |
| CCCCCCCCCCCCCCOc1c(CBr)cccc1CBr | 59.3 to 59.8 |
| N#Cc1cc(Cn2nnc(C(N)=O)c2N)ccc1Cl | 172 to 175 |

| Structure (SMILES) | melting point [°C] |
| --- | --- |
| CCN(CC)c1cccc(CCC(N)=O)c1 | 59 |
| O=C(O)CCc1ccc(OCCN2CCCC2=O)cc1Oc1ncc(C(F)(F)F)cc1Cl | 145 to 146 |
| COc1nc2ccccn2c(=O)c1-c1ccc(NC2CCN(C(=O)OC(C)(C)C)C2)cc1 (stereo unspecified) | 102 to 104 |
| CNC(=O)Cn1c(-c2ccc(C)s2)nc2cccnc21 | 213 to 216 |
| O=C1Nc2cccnc2N(C(=O)N2CCC(CCN3CCCCC3)CC2)c2ccccc21 | 178 to 180 |
| BrCc1cccc(-c2cccc(CBr)n2)n1 | 180 to 181 |
| COC(=O)c1cc(Cl)c(C(=O)OC)cc1Cl | 134 to 135 |
| O=C(OCCN1CCN(c2cccc(C(F)(F)F)c2)CC1)c1cc(F)ccc1Nc1ccnc2cc(Cl)ccc12 | 113 |
| Cc1ccc2c(c1)c(=O)[nH]c(=O)n2CCCCN1CCC(OC(c2ccccc2)c2ccccc2)CC1 | 180 to 182 |
| O=C(O)c1cccc(-c2ccc3c(c2)N(Cc2cc(Cl)cc(Cl)c2)CC3)c1 | 207 to 208 |
| CN(C)c1ccc(C(=O)C(F)c2cccc(Cl)c2)cc1 (stereo unspecified) | 90 to 92 |
| O=c1c2ccc(Cl)cc2[nH]c2c(=O)n(CCO)nc(O)c12 | 377 to 378 |
| CSc1c(C#N)c(=O)n2ccccc2c1C(C)=O | 178 |
| CCOC(=O)NCc1cccc(C(=O)OC)c1C(=O)OC | 187 to 189 |
| Nc1cc2c(cc1Cl)C(=O)C1(CC1)O2 | 201 |
| COc1ccccc1NC(=S)c1ccc(C(F)(F)F)cc1 | 118 to 120 |
| O=C(NO)c1ccc(C(=O)Nc2cccc(Nc3nc(-c4cccnc4)cs3)c2)cc1 | 206 |
| CCc1cccc2c1[nH]c1c2ccc2c(C=O)c[nH]c21 | > 250 |
| O=[N+]([O-])c1ccc(Cl)cc1Cc1ccccn1 | 69 |
| CCOC(=O)c1cn(C2CC2)c2nc(N3CCN(C(=O)OCC)CC3)c(F)cc2c1=O | 184 to 186 |
| N#Cc1ccc2c(c1)C(=O)c1ccccc1CN2 | 235 to 236 |
| CCOCc1nc2c(NC(=O)c3ccccc3)nc3ccccc3c2n1CC(C)(C)NS(C)(=O)=O | 80 to 83 |
| CNC(=O)c1ccc(N2CCN(Cc3cc4c(c(C5CC5)c3)OC(C)C(=O)N4)CC2)cc1 (stereo unspecified) | 256 to 259 |
| CC(=NOCCO)c1ccc(-c2ccc(C(F)(F)F)cc2)cc1 | 108 to 111 |
| O=Cc1cc2c3ccccc3ccc2c2occc12 | 145 to 150 |
| COC(=O)CN1CCN(CC(=O)OC)[C@@H](C(N)=O)[C@H]1C(N)=O | 172 to 173 |

| Structure (SMILES) | melting point [°C] |
| --- | --- |
| COCCOc1cc2ncnc(NC3=CC(=O)C(Br)=CC3=O)c2cc1OC | 200 to 210 |
| CCOC(=O)C=Cc1c(OCc2ccc(OCc3nc(-c4ccccc4)oc3C)cc2)ccc2ccccc12 | 73 to 74 |
| CCS(=O)(=O)CCNC(=O)C1=C(C(=O)Nc2ccc(Cl)cc2F)CCCC1 | 150 to 151 |
| COC(=O)CCCC(=O)Nc1cccc(Br)n1 | 128 to 131 |
| N#Cc1ccc2nc(C(F)(F)F)[nH]c2c1 | 194 to 196 |
| CN1CCN(C2Cc3ccc(Cl)cc3Sc3cc(F)ccc32)CC1 (stereo unspecified) | 156 to 158 |
| O=C(O)Cc1ccc2c(c1)C(=O)Cc1ccccc1S2 | 166 to 167 |
| OC1CCCc2nc3ccccc3c(NCc3cccc(F)c3)c21 (stereo unspecified) | 128 |
| NS(=O)(=O)c1ccc(-n2nc(CC(=O)O)cc2-c2ccc(Cl)cc2)cc1 | 120 to 122 |
| Cc1c(Br)sc2ccc(Br)cc12 | 118 to 122 |
| CC(=O)Nc1ccc2c(c1)C(=O)c1cc(NC(C)=O)ccc1C2=O | 340 |
| COC(=O)C(Cc1ccccc1)Oc1ccc(-c2ccc(-c3c(Cc4ccccc4)oc4ccccc34)cc2)cc1 (stereo unspecified) | 67 to 69 |
| Cc1nc(Cl)c([N+](=O)[O-])c(NCC(C)(C)NC(=O)OC(C)(C)C)c1C | 97 to 100 |
| Cc1ccc(N2CCN(c3cc4c(ncc5c4c(=O)c(C(=O)O)cn5C)c(F)c3Cl)CC2)cc1F | 360 |
| CC(COc1ccc(CC2SC(=O)NC2=O)cc1)N1CC(Cc2ccccc2)OC1=O (stereo unspecified) | 60 to 70 |
| O=C(O)CN1C(=O)CN(Cc2ccccc2)C1=O | 125 to 127 |
| CN(C(=O)OCc1ccccc1)c1ccc(OCC(=O)O)cc1 | 96 to 97 |
| CNC(=O)c1ccnc(NC(=O)N2CCC3(CCc4cc(F)ccc4O3)CC2)c1 | 175 to 176 |
| CCCc1c(OCCOc2cccc(C(=O)O)c2)ccc(C(C)=O)c1O | 155 |
| COC(=O)c1cccc2nc(N3CCOCC3)n(Cc3ccc(-c4ccccc4-c4nnn[nH]4)cc3)c12 | 163 to 167 |
| NCCCCC(OP(=O)(O)CCCCc1ccc(F)cc1)C(=O)N1CCCC1C(=O)O (stereo unspecified) | 178 to 185 |
| C=C[C@H](O)[C@@H](N)CC1CCCCC1 | 59 to 61 |
| O=C(Nc1ccc(-n2nc(C(F)(F)F)cc2C(F)(F)F)cc1)c1c(Cl)ccc([N+](=O)[O-])c1Cl | 160 to 161 |
